From patent US20120128654A1, “Allantoin Administration for the Treatment of Neurodegenerative Disease and Neurotrauma” (UNIVERSITY OF CINCINNATI, priority 2009, published 2012)
Entries after “also recorded” stand apart in the source; their conditions may differ.

Assays:
[1] = Plasma purine levels following subcutaneous purine and KO pellet administration; type: in vivo, Sprague Dawley rats; details: rats, four days following pellet implantation; for plasma allantoin levels: matrix-driven s.c. pellets, vs control
Source text: (§1) Continuous s.c. delivery of INO, KO and ALL was achieved by implanting matrix-driven pellets into the s.c. space. Animals were anesthetized with isofluorane and prepared for surgery using sterile procedures. A small incision was made posterior to the scapula and the pellet was placed in the subscapular space contralateral to the incision. This placement technique prevents migration of the pellet towards the incision, thereby reducing the incidents of rejection. Finally, the incision was closed using aseptic procedures. To determine the roles of UA and allantoin in inosine-mediated neuroprotection, animals were treated with the urate oxidase inhibitor KO. This approach has been widely used to prevent the enzymatic metabolism of UA to allantoin in other rodent models of disease.
For HPLC analysis of plasma inosine, hypoxanthine, xanthine and UA, an antioxidant solution was added to an equal volume of plasma and samples were centrifuged at 14,000 g for 20 minutes at 4° C. The supernatant was collected for HPLC analysis. Samples were separated on a Hypersil ODS column (Thermo-Fisher Scientific, Waltham, Mass.). Compounds were detected using a Photodiode Array Detector attached to a Waters 2695 Solvent Delivery System under the following conditions: the mobile phase consisted of 0.5% KH2PO4 at a pH of 4.6. Unknown samples were quantified against a 6-point standard curve with a minimum r^2 of 0.97. Quality control samples were interspersed with each run to ensure HPLC calibration. Data are expressed in μg/ml.
For plasma analysis of allantoin venous blood was obtained from the right ventricle (rat) and collected from repeated blood draws (African green monkey). Blood was immediately centrifuged at 10,500 rpms (this needs to be in G) for 5 minutes. Supernatant was then removed and analyzed for allantoin. Enzymatic detection of allantoin was performed as previously described with the exception of reaction volumes being adjusted to accommodate the use of a 96 well microtiter plate (Muratsubaki et al., Enzymatic assay of allantoin in serum using allantoinase and allantoate amidohydrolase, Anal. Biochem. 359:161-166 (2006)). […] Following a 15 minute incubation, absorbance was read on a spectrometer at 340 nm. […] Following a 10 minute incubation absorbance was once again measured at 340 nm. The final absorbance was subtracted from the absorbance following the addition of allantoinase. […]
To determine the impact of peripheral administration of purines on plasma purine levels, animals were divided into 5 groups INO (n=12), INO/KO (n=12), ALL (n=12), KO (n=12), and sham pellet implantation. […] Plasma ALL levels were determined enzymatically.

[2] = tested on: 6-OHDA induced forelimb akinesia; experiment: Cylinder testing for forelimb akinesia after intrastriatal 6-OHDA; type: in vivo, Sprague Dawley rats; details: cylinder test, s.c. pellets implanted 3 days prior to intrastriatal 6-OHDA, four and six weeks post lesion, vs control
Source text: as §1
Rats were anesthetized prior to surgery with Equi-Thesin (0.3 ml/100 g body weight i.p.; chloral hydrate 42.5 mg/ml+sodium pentobarbital 9.72 mg/ml), their heads shaved, and then they were placed in a stereotaxic frame. Their skin was swabbed with Betadyne followed by 70% ETOH. The scalp was then opened to expose the skull. Two 1 mm holes were drilled into the skull and rats were injected in two sites in the striatum with 6-OHDA (MP Biomedicals, Solon, Ohio; 5 μg/μl 6-OHDA in 0.2% ascorbic acid, 0.9% saline solution). […]
Non-drugged, spontaneous use of the forepaws was measured in rats as described by Schallert (Schallert, T., Behavioral tests for preclinical intervention assessment, NeuroRx 3:497-504 (2006)) prior to pellet and intrastriatal 6-OHDA and at both four weeks and six weeks after 6-OHDA. […] Videotapes were analyzed by a rater blinded to treatment. The number of times the rat used its left, right, or both paws for weight bearing in a given trial was determined and noted. […]
In the first experiment, rats were divided into four different groups INO (n=6), INO/potassium oxonate (KO blocks conversion of UA to ALL) (n=6), ALL (n=6), and sham pellet implantation. […] In experiment 1, rats were assessed for forelimb akinesia prior to, and […] and 6 weeks after intrastriatal 6-OHDA infusion. […]

SMILES	plasma allantoin levels [1]	plasma allantoin levels ([1]; listed as Allantoin)	forelimb akinesia [2]	plasma levels of any other purines ([1]; s.c. pellets)	forelimb akinesia ([2]; listed as Inosine)
NC(=O)NC1NC(=O)NC1=O (stereo not shown) [allantoin]	increase in plasma allantoin similar to what was seen in the inosine only group	significantly increased	reduced at four and six weeks post-lesion; also recorded: significantly attenuated	–	–
OC[C@H]1O[C@@H](n2cnc3c(O)ncnc32)[C@H](O)[C@@H]1O [inosine]	significantly increased	–	significantly attenuated	without affecting	significantly ameliorated forelimb akinesia six weeks post lesion
